Nine test systems from the supplement of paper PMC6045584 can be followed below.

± gives the standard deviation of the averaged measurements.

Compound in one assay: CCC1=C[C@@H]2CN(C1)Cc1c([nH]c3ccccc13)[C@@](C(=O)OC)(c1cc3c(cc1OC)N(C)[C@H]1[C@@](O)(C(=O)OC)[C@H](OC(C)=O)[C@]4(CC)C=CCN5CC[C@]31[C@@H]54)C2 [VINORELBINE]
Briefly: surviving fraction relative to DMSO-only wells; higher = less growth inhibition. As to conditions: exposure time: 5 days. In a few lines:
(§1)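 Lines were retained only if, across three screens, replicate Pearson r was >0.7 and median Z' was >0.3. Viability was measured as CellTiter-Glo luminescence and reported as surviving fraction relative to the median of DMSO-only wells. Readings followed 10 minutes at room temperature, after log-phase tumour cells seeded at 250–500 per well in 384-well plates had been exposed, from 24 hours after seeding, continuously for five days to inhibitors at 0.5, 1, 5, 10, 50, 100, 500 and 1000 nM.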

Compound in another assay: CCN(CC)CCNC(=O)c1c(C)[nH]c(/C=C2\C(=O)Nc3ccc(F)cc32)c1C [SUNITINIB]
Described as above. As to conditions: exposure time: 5 days. In outline: as §1

As to SUM149.B1*.S BREAST, the surviving fraction with VINORELBINE (0.5 nM) was determined as 1.11 ± 0.042; in the assay with VINORELBINE (1 nM), 1.06 ± 0.05; in the assay with VINORELBINE (5 nM), 1.09 ± 0.057; with VINORELBINE (10 nM), 0.994 ± 0.015; in the assay with VINORELBINE (50 nM) it was 0.338 ± 0.038; in the assay with VINORELBINE (100 nM) it was 0.154 ± 0.017. The surviving fraction in the assay with VINORELBINE (500 nM) amounted to 0.171 ± 0.019; with VINORELBINE (1000 nM) it was 0.193 ± 0.0067; in the assay with SUNITINIB (0.5 nM), 0.877 ± 0.07; in the assay with SUNITINIB (1 nM) it was 0.786 ± 0.039; with SUNITINIB (10 nM), 0.437 ± 0.023; with SUNITINIB (50 nM), 0.988 ± 0.02. The surviving fraction came to 0.873 ± 0.022 with SUNITINIB (100 nM), 0.789 ± 0.02 in the assay with SUNITINIB (500 nM) and 0.27 ± 0.0057 in the assay with SUNITINIB (1000 nM).
In the case of SUM159 BREAST, the surviving fraction stood at 0.966 ± 0.14 with VINORELBINE (0.5 nM); 0.944 ± 0.2 in the assay with VINORELBINE (1 nM); 0.941 ± 0.2 with VINORELBINE (5 nM); 0.908 ± 0.23 with VINORELBINE (10 nM); 0.423 ± 0.19 with VINORELBINE (50 nM); 0.156 ± 0.052 with VINORELBINE (100 nM). Further, the surviving fraction came to 0.129 ± 0.053 in the assay with VINORELBINE (500 nM); 0.12 ± 0.046 with VINORELBINE (1000 nM); 0.9683 ± 0.0076 in the assay with SUNITINIB (1 nM); 0.927 ± 0.06 with SUNITINIB (10 nM); 0.914 ± 0.12 with SUNITINIB (50 nM); 0.839 ± 0.13 with SUNITINIB (500 nM). Also, in the assay with SUNITINIB (1000 nM), the surviving fraction was determined as 0.548 ± 0.11.
SYO1 SYNOVIAL: the surviving fraction with VINORELBINE (0.5 nM) turned out to be 1.03 ± 0.021; with VINORELBINE (1 nM), 1 ± 0.027; with VINORELBINE (5 nM) it was 0.818 ± 0.056; with VINORELBINE (10 nM) it was 0.429 ± 0.062; in the assay with VINORELBINE (50 nM), 0.114 ± 0.011; in the assay with VINORELBINE (100 nM) it was 0.0666 ± 0.0041. Further, the surviving fraction with VINORELBINE (500 nM) was found to be 0.052 ± 0.0061; with VINORELBINE (1000 nM) it was 0.0546 ± 0.005; in the assay with SUNITINIB (0.5 nM) it was 0.789 ± 0.035; with SUNITINIB (1 nM), 0.609 ± 0.092; with SUNITINIB (5 nM) it was 0.664 ± 0.03; with SUNITINIB (10 nM), 0.313 ± 0.13. Also, the surviving fraction in the assay with SUNITINIB (50 nM) turned out to be 0.819 ± 0.013; with SUNITINIB (100 nM), 0.768 ± 0.036; with SUNITINIB (500 nM) it was 0.52 ± 0.014; with SUNITINIB (1000 nM) it was 0.0887 ± 0.054.
In the case of T47D BREAST, the surviving fraction with VINORELBINE (0.5 nM) worked out at 1.03 ± 0.026; in the assay with VINORELBINE (1 nM), 1.01 ± 0.03; in the assay with VINORELBINE (5 nM), 0.735 ± 0.026; in the assay with VINORELBINE (10 nM), 0.609 ± 0.023; with VINORELBINE (50 nM), 0.356 ± 0.0061; with VINORELBINE (100 nM) it was 0.341 ± 0.016. For the same test system, the surviving fraction with VINORELBINE (500 nM) is 0.369 ± 0.025; with VINORELBINE (1000 nM), 0.373 ± 0.013; in the assay with SUNITINIB (0.5 nM) it was 0.93 ± 0.037; with SUNITINIB (1 nM), 0.896 ± 0.059; in the assay with SUNITINIB (5 nM), 0.911 ± 0.018; in the assay with SUNITINIB (10 nM) it was 0.817 ± 0.034. For the same test system, the surviving fraction was determined as 1.11 ± 0.027 in the assay with SUNITINIB (50 nM), 1.13 ± 0.038 with SUNITINIB (100 nM), 1.13 ± 0.04 in the assay with SUNITINIB (500 nM) and 0.985 ± 0.077 in the assay with SUNITINIB (1000 nM).
Consider U2OS BONE, for which the surviving fraction in the assay with VINORELBINE (0.5 nM) amounted to 1.09 ± 0.022; with VINORELBINE (1 nM) it was 1.03 ± 0.044; with VINORELBINE (5 nM), 0.993 ± 0.032; in the assay with VINORELBINE (10 nM) it was 0.954 ± 0.04; with VINORELBINE (50 nM) it was 0.569 ± 0.036; with VINORELBINE (100 nM), 0.273 ± 0.023. Besides, the surviving fraction in the assay with VINORELBINE (500 nM) was determined as 0.116 ± 0.0097; in the assay with VINORELBINE (1000 nM) it was 0.0883 ± 0.012; in the assay with SUNITINIB (0.5 nM), 0.882 ± 0.039; in the assay with SUNITINIB (1 nM), 0.893 ± 0.032; in the assay with SUNITINIB (5 nM) it was 0.95 ± 0.032; with SUNITINIB (50 nM), 0.956 ± 0.026. Besides, the surviving fraction stood at 0.94 ± 0.038 with SUNITINIB (100 nM), 0.549 ± 0.014 in the assay with SUNITINIB (500 nM) and 0.262 ± 0.0072 in the assay with SUNITINIB (1000 nM).
As to VCAP PROSTATE, the surviving fraction in the assay with VINORELBINE (0.5 nM) is 1.1 ± 0.096; in the assay with VINORELBINE (1 nM) it was 1.02 ± 0.035; with VINORELBINE (5 nM) it was 0.64 ± 0.04; with VINORELBINE (10 nM), 0.299 ± 0.031; with VINORELBINE (50 nM), 0.0883 ± 0.012; in the assay with VINORELBINE (100 nM) it was 0.0827 ± 0.021. Besides, the surviving fraction with VINORELBINE (500 nM) came to 0.122 ± 0.0049; in the assay with VINORELBINE (1000 nM), 0.148 ± 0.022; with SUNITINIB (0.5 nM), 0.976 ± 0.065; with SUNITINIB (1 nM) it was 1 ± 0.088; in the assay with SUNITINIB (5 nM), 1.09 ± 0.07; with SUNITINIB (10 nM), 1.02 ± 0.038. For the same test system, the surviving fraction in the assay with SUNITINIB (50 nM) is 1.06 ± 0.077; with SUNITINIB (100 nM) it was 1.09 ± 0.099; with SUNITINIB (500 nM), 0.734 ± 0.034; with SUNITINIB (1000 nM), 0.519 ± 0.06.
Regarding VP229 BREAST, the surviving fraction with VINORELBINE (0.5 nM) was 1.13 ± 0.18; in the assay with VINORELBINE (1 nM), 0.962 ± 0.062; with VINORELBINE (5 nM), 0.958 ± 0.098; with VINORELBINE (10 nM) it was 0.8 ± 0.048; in the assay with VINORELBINE (50 nM), 0.351 ± 0.043; with VINORELBINE (100 nM), 0.297 ± 0.016. For the same test system, the surviving fraction with VINORELBINE (500 nM) turned out to be 0.275 ± 0.012; with VINORELBINE (1000 nM) it was 0.245 ± 0.014; with SUNITINIB (0.5 nM) it was 0.708 ± 0.076; with SUNITINIB (1 nM), 0.675 ± 0.1; in the assay with SUNITINIB (5 nM), 0.709 ± 0.04; in the assay with SUNITINIB (10 nM), 0.709 ± 0.065. Also, the surviving fraction in the assay with SUNITINIB (50 nM) was 0.955 ± 0.12; with SUNITINIB (100 nM), 0.964 ± 0.038; in the assay with SUNITINIB (500 nM), 0.762 ± 0.064; in the assay with SUNITINIB (1000 nM) it was 0.364 ± 0.051.
Turning to YAMATO SYNOVIAL, the surviving fraction in the assay with VINORELBINE (0.5 nM) amounted to 1.04 ± 0.06; with VINORELBINE (1 nM), 1.08 ± 0.042; with VINORELBINE (5 nM), 1 ± 0.024; with VINORELBINE (10 nM), 0.646 ± 0.05; with VINORELBINE (50 nM), 0.391 ± 0.036; in the assay with VINORELBINE (100 nM), 0.36 ± 0.014. The surviving fraction with VINORELBINE (500 nM) turned out to be 0.346 ± 0.015; in the assay with VINORELBINE (1000 nM), 0.397 ± 0.0053; with SUNITINIB (1 nM), 0.392 ± 0.031; in the assay with SUNITINIB (5 nM), 0.586 ± 0.058; with SUNITINIB (10 nM) it was 0.0847 ± 0.0081; with SUNITINIB (100 nM), 0.583 ± 0.021. The surviving fraction with SUNITINIB (500 nM) came to 0.588 ± 0.046; in the assay with SUNITINIB (1000 nM), 0.0633 ± 0.0023.
In the case of ZR751 BREAST, the surviving fraction with VINORELBINE (0.5 nM) amounted to 1.17 ± 0.19; with VINORELBINE (1 nM), 1.07 ± 0.1; in the assay with VINORELBINE (5 nM) it was 0.7 ± 0.1; with VINORELBINE (10 nM), 0.472 ± 0.07; with VINORELBINE (50 nM), 0.492 ± 0.054; in the assay with VINORELBINE (100 nM), 0.431 ± 0.057. Besides, the surviving fraction with VINORELBINE (500 nM) was determined as 0.297 ± 0.064; with VINORELBINE (1000 nM), 0.263 ± 0.041; in the assay with SUNITINIB (1 nM) it was 1.1 ± 0.16; with SUNITINIB (5 nM), 1.15 ± 0.083; in the assay with SUNITINIB (50 nM), 1.31 ± 0.25; with SUNITINIB (500 nM), 1.22 ± 0.16.
